13 compounds from US10759816B2, “Heterocyclic compounds as RSV inhibitors” (Enanta Pharmaceuticals, Inc., priority 2016, dated 2020) can be followed below.

The assay deals with genotype A, "Long" strain RSV. The experiment in a line: RSV-A in vitro cytoprotection assay in HEp-2 cells (ATPlite readout of cell viability). It is filed as cell-based, Human respiratory syncytial virus. The conditions noted are these: human respiratory syncytial virus, HEp-2, HEp-2 cells, genotype A “Long” strain RSV, cytoprotection; read-out: Human RSV-A (“Long” strain) EC50. In outline:
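Cytoprotection measured as ATP-based luminescence (ATPlite) after 4-day incubation of RSV Long-infected HEp-2 cells (8,000/well, 10% FBS DMEM) with 2-fold serial compound dilutions in duplicate. Identically treated virus-free plate gives cytotoxicity; EC50 calculated from viability.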
A general note: Cellular ATP, detected with luciferase, serves as a proxy for viable cell number.

A value given as a limit tells only on which side of the number the result lay.

As a reminder, the EC50 is the concentration that produces a half-maximal response.

Consider `CC(C)(O)c1ccc(-c2cccc(C(=O)N3CCc4cc(C(=O)NC5CC5)sc4-c4ccccc43)n2)cc1` [Example 64], for which the EC50 fell in the range of 400 to 800 nM.
The same measure for `Cc1cc(-c2cccc(C(=O)N3CCc4cc(C(=O)Nc5c(C)cccc5F)sc4-c4ccccc43)n2)n(C)n1` [Example 234]: below 400 nM; for `Cc1cccc(F)c1NC(=O)c1cc2c(s1)-c1ccccc1N(C(=O)c1cccc(NCC3CCCS3(=O)=O)n1)CC2` (stereo not shown) [Example 462]: below 400 nM.
The same measure for `Cc1cccc(F)c1NC(=O)c1cc2c(s1)-c1ccccc1N(C(=O)c1cccc(N3CCS(=O)(=O)c4ccccc4[C@H]3C)n1)CC2` [Example 433]: above 800 nM; for `Cc1cccc(F)c1NC(=O)c1cc2c(s1)-c1ccccc1N(C(=O)c1cccc(N3CCOc4ccccc4C3C)n1)CC2` (stereo not shown) [Example 364]: above 800 nM; for `Cc1cccc(F)c1NC(=O)c1cc2c(s1)-c1ccccc1N(C(=O)c1cccc(N3CCN(C4CC4)S(=O)(=O)CC3)n1)CC2` [Example 448]: below 400 nM.
The same measure for `O=C(NC1CC1)c1cc2c(s1)-c1ccccc1N(C(=O)c1cccc(C3CCOCC3)n1)CC2` [Example 60]: 400 to 800 nM; for `O=C(NC1CC1)c1cc2c(s1)-c1ccccc1N(C(=O)c1cccc(N[C@@H]3CCOC3)n1)CC2` [Example 290]: above 800 nM.
For the compound `Cc1cccc(F)c1NC(=O)c1cc2c(s1)-c1ccccc1N(C(=O)c1cccc(N3CCCN(C(=O)OC(C)(C)C)CC3)n1)CC2` [Example 380], the EC50 is below 400 nM.
Turning to `CCS(=O)(=O)CCN(C)c1cccc(C(=O)N2CCc3cc(C(=O)Nc4c(C)cccc4F)sc3-c3ccccc32)n1` [Example 325], the EC50 was below 400 nM.
The same measure for `Cc1cncc(-c2cccc(C(=O)N3CCc4cc(C(=O)NC5CC5)sc4-c4ccccc43)n2)c1` [Example 155]: above 800 nM.
The same measure for `O=C(NC1CC1)c1cc2c(s1)-c1ccccc1N(C(=O)c1cccc(N3CCOc4ccc(Cl)cc4C3)n1)CC2` [Example 279]: below 400 nM; for `Cc1cccc(F)c1NC(=O)c1cc2c(s1)-c1ccccc1N(C(=O)c1cccc(N3CCC[C@@H]3C#N)n1)CC2` [Example 474]: below 400 nM.
